{"source": "patent US20190315806A1", "about": "“POLYMYXIN DERIVATIVE, PREPARATION METHOD AND APPLICATION THEREOF” (priority 2016, published 2019)", "format_in_all_cases": "cell-based", "key": {"[1]": {"system": "Klebsiella pneumoniae ATCC BAA-2146 (NDM-1)", "assay": "Antibacterial activity, MIC by dish double dilution method", "details": "ATCC BAA-2146", "protocol": "(§1) The minimum inhibitory concentration (MIC) was determined by means of dish double dilution method using a Multipoint inoculator according to the CLSI recommended method. The compounds of the present invention (for example, the compounds prepared in the Embodiments) and the reference substances were diluted twice each time with the broth into various desired concentrations, and appropriate amounts were added to the dishes. Agar medium is melted, and then quantitatively injected into the dish containing the drug solution, and mixed. The final concentrations of the compounds of the invention (e.g., the compounds prepared in the Embodiments) and the controls were 0.03, 0.06, 0.125, 0.25 . . . 128 μg/mL, respectively. The test bacteria were cultured overnight with nutrient broth, brain heart infusion or HTM broth. During the tests, the bacterial solutions were diluted appropriately, and the test bacteria (inoculation amount 10^4 CFU/dot) were inoculated on the surface of the drug-containing agar by a multi-point inoculator. After drying, the bacterial was incubated for 18 to 24 hours at 35° C., the results were observed, the minimum concentrations of the compounds of the present invention (for example, the compounds prepared in the Embodiments) and the controls contained in the dishes with no growth of colonies were MICs.\n(§2) The strains used in the antibacterial activity experiments were from the American Type Culture Collection (ATCC) and clinical isolates.\n(§3) The strains used for the experiments on antibacterial activity included Escherichia coli ATCC 25922, Klebsiella pneumoniae ATCC BAA-2146 (NDM-1), Pseudomonas aeruginosa ATCC 27853, Acinetobacter baumannii ATCC 19606 and Staphylococcus epidermidis ATCC 12228.\n(§4) Tested samples: polymyxin derivatives prepared according to the technical scheme of the present invention;\n(§5) Controls: polymyxin B sulfate and colistin (polymyxin E sulfate)."}, "[2]": {"system": "Acinetobacter baumannii ATCC 19606", "details": "ATCC 19606", "protocol": "as §1, §2, §3, §4, §5"}, "[3]": {"system": "Pseudomonas aeruginosa ATCC 27853", "details": "ATCC 27853", "protocol": "as §1, §2, §3, §4, §5"}, "[4]": {"system": "Staphylococcus epidermidis ATCC 12228", "details": "ATCC 12228", "protocol": "as §1, §2, §3, §4, §5"}, "[5]": {"system": "Escherichia coli ATCC 25922", "details": "ATCC 25922", "protocol": "as §1, §2, §3, §4, §5"}}, "note": "Where a SMILES comes first, the peptide text is derived from it. Bridges are numbered along the chain shown (N, C = ends). [ ]: non-standard residue; d: D form. The star is where a group is joined. dPhe(4-NO2) = N[C@H](Cc1ccc([N+](=O)[O-])cc1)C(=O)O; Benzoyl(4-OPh) = O=C(c1ccc(Oc2ccccc2)cc1)*; dPhe(4-Cl) = N[C@H](Cc1ccc(Cl)cc1)C(=O)O; X7 = Cc1ccc(Oc2ccc(C(=O)*)cc2)cc1; X2 = CC[C@H](C)CCCCC(=O)*; Dab = NCC[C@H](N)C(=O)O"}
{"smiles": "CC(C)C[C@@H]1NC(=O)[C@@H](Cc2ccccc2)NC(=O)[C@H](CCN)NC(=O)[C@@H](NC(=O)[C@H](CCN)NC(=O)[C@@H](NC(=O)[C@H](CCN)NC(=O)c2ccc(Oc3ccccc3)cc2)[C@@H](C)O)CCNC(=O)[C@H]([C@@H](C)O)NC(=O)[C@H](CCN)NC(=O)[C@H](CCN)NC1=O", "note": "[Compound 8, 4-(phenoxy)benzoyl-Dab-Thr-Dab-ring(4-10)[Dab-Dab-D-Phe-Lue-Dab-Dab-Thr]] ({Benzoyl(4-OPh)}-[Dab]T[Dab][Dab][Dab][dF]L[Dab][Dab]T; lactam 4-C)", "values": [{"measurement": "MIC K. pneumoniae ATCC BAA-2146 (NDM-1)", "setting": "[1]", "result": 4, "unit": "µg/mL"}, {"measurement": "MIC A. baumannii ATCC 19606", "setting": "[2]", "result": 2, "unit": "µg/mL"}, {"measurement": "MIC P. aeruginosa ATCC 27853", "setting": "[3]", "result": 8, "unit": "µg/mL"}, {"measurement": "MIC S. epidermidis ATCC 12228", "setting": "[4]", "result": 16, "unit": "µg/mL"}, {"measurement": "MIC E. coli ATCC 25922", "setting": "[5]", "result": 4, "unit": "µg/mL"}]}
{"smiles": "Cc1ccc(Oc2ccc(C(=O)N[C@@H](CCN)C(=O)N[C@H](C(=O)N[C@@H](CCN)C(=O)N[C@H]3CCNC(=O)[C@H]([C@@H](C)O)NC(=O)[C@H](CCN)NC(=O)[C@H](CCN)NC(=O)[C@H](CC(C)C)NC(=O)[C@@H](Cc4ccccc4)NC(=O)[C@H](CCN)NC3=O)[C@@H](C)O)cc2)cc1", "note": "[Compound 9, 4-(p-methylphenoxy)benzoyl-Dab-Thr-Dab-ring(4-10)[Dab-Dab-D-Phe-Lue-Dab-Dab-Thr]] (X7-[Dab]T[Dab][Dab][Dab][dF]L[Dab][Dab]T; lactam 4-C)", "values": [{"measurement": "MIC K. pneumoniae ATCC BAA-2146 (NDM-1)", "setting": "[1]", "result": 4, "unit": "µg/mL"}, {"measurement": "MIC A. baumannii ATCC 19606", "setting": "[2]", "result": 4, "unit": "µg/mL"}, {"measurement": "MIC P. aeruginosa ATCC 27853", "setting": "[3]", "result": 4, "unit": "µg/mL"}, {"measurement": "MIC S. epidermidis ATCC 12228", "setting": "[4]", "result": 8, "unit": "µg/mL"}, {"measurement": "MIC E. coli ATCC 25922", "setting": "[5]", "result": 4, "unit": "µg/mL"}]}
{"smiles": "CC[C@H](C)CCCCC(=O)N[C@@H](CCN)C(=O)N[C@H](C(=O)N[C@@H](CCN)C(=O)N[C@H]1CCNC(=O)[C@H]([C@@H](C)O)NC(=O)[C@H](CCN)NC(=O)[C@H](CCN)NC(=O)[C@H](CC(C)C)NC(=O)[C@@H](Cc2ccc(O)cc2)NC(=O)[C@H](CCN)NC1=O)[C@@H](C)O", "note": "[Compound 12, (S)-6-methyloctanoyl-Dab-Thr-Dab-ring(4-10)[Dab-Dab-D-Tyr-Lue-Dab-Dab-Thr]] (X2-[Dab]T[Dab][Dab][Dab][dY]L[Dab][Dab]T; lactam 4-C)", "values": [{"measurement": "MIC K. pneumoniae ATCC BAA-2146 (NDM-1)", "setting": "[1]", "result": 2, "unit": "µg/mL"}, {"measurement": "MIC A. baumannii ATCC 19606", "setting": "[2]", "result": 2, "unit": "µg/mL"}, {"measurement": "MIC P. aeruginosa ATCC 27853", "setting": "[3]", "result": 1, "unit": "µg/mL"}, {"measurement": "MIC S. epidermidis ATCC 12228", "setting": "[4]", "result": 128, "unit": "µg/mL"}, {"measurement": "MIC E. coli ATCC 25922", "setting": "[5]", "result": 2, "unit": "µg/mL"}]}
{"smiles": "CC[C@H](C)CCCCC(=O)N[C@@H](CCN)C(=O)N[C@H](C(=O)N[C@@H](CCN)C(=O)N[C@H]1CCNC(=O)[C@H]([C@@H](C)O)NC(=O)[C@H](CCN)NC(=O)[C@H](CCN)NC(=O)[C@H](CC(C)C)NC(=O)[C@@H](Cc2ccc([N+](=O)[O-])cc2)NC(=O)[C@H](CCN)NC1=O)[C@@H](C)O", "note": "[Compound 14, (S)-6-methyloctanoyl-Dab-Thr-Dab-ring(4-10)[Dab-Dab-D-Phe(4-NO2)-Lue-Dab-Dab-Thr]] (X2-[Dab]T[Dab][Dab][Dab][dPhe(4-NO2)]L[Dab][Dab]T; lactam 4-C)", "values": [{"measurement": "MIC K. pneumoniae ATCC BAA-2146 (NDM-1)", "setting": "[1]", "result": 2, "unit": "µg/mL"}, {"measurement": "MIC A. baumannii ATCC 19606", "setting": "[2]", "result": 1, "unit": "µg/mL"}, {"measurement": "MIC P. aeruginosa ATCC 27853", "setting": "[3]", "result": 2, "unit": "µg/mL"}, {"measurement": "MIC S. epidermidis ATCC 12228", "setting": "[4]", "result": 8, "unit": "µg/mL"}, {"measurement": "MIC E. coli ATCC 25922", "setting": "[5]", "result": 1, "unit": "µg/mL"}]}
{"smiles": "CC[C@H](C)CCCCC(=O)N[C@@H](CCN)C(=O)N[C@H](C(=O)N[C@@H](CCN)C(=O)N[C@H]1CCNC(=O)[C@H]([C@@H](C)O)NC(=O)[C@H](CCN)NC(=O)[C@H](CCN)NC(=O)[C@H](CC(C)C)NC(=O)[C@@H](Cc2ccc(Cl)cc2)NC(=O)[C@H](CCN)NC1=O)[C@@H](C)O", "note": "[Compound 16, (S)-6-methyloctanoyl-Dab-Thr-Dab-ring(4-10)[Dab-Dab-D-Phe(4-Cl)-Lue-Dab-Dab-Thr]] (X2-[Dab]T[Dab][Dab][Dab][dPhe(4-Cl)]L[Dab][Dab]T; lactam 4-C)", "values": [{"measurement": "MIC K. pneumoniae ATCC BAA-2146 (NDM-1)", "setting": "[1]", "result": 2, "unit": "µg/mL"}, {"measurement": "MIC A. baumannii ATCC 19606", "setting": "[2]", "result": 1, "unit": "µg/mL"}, {"measurement": "MIC P. aeruginosa ATCC 27853", "setting": "[3]", "result": 2, "unit": "µg/mL"}, {"measurement": "MIC S. epidermidis ATCC 12228", "setting": "[4]", "result": 16, "unit": "µg/mL"}, {"measurement": "MIC E. coli ATCC 25922", "setting": "[5]", "result": 1, "unit": "µg/mL"}]}
